According to PubChem BioAssay AID1963968 (Molecular Pharmacology Branch, DTP, NCI, 2024):
“And” between values parts separate entries of the source, which are not always exact repeats. Identical values can stand only once.

Tested on: 945468-187-T-J3-PDC spheroids with HUVEC/MSC, viability
Test: Anticancer human tumor 945468-187-T-J3-PDC patient-derived rectal carcinoma cell line growth inhibition [PI3K]
Details: for viability, T/C: stronger effect = lower value
Outline: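 Multi-cell spheroids combine tumor cells with HUVEC and human MSCs, treated with targeted agents alone or with inavolisib, alpelisib, duvelisib or copanlisib. Concentrations fall in half-log steps from at or near clinical Cmax, or from 10 microM where Cmax is unknown; viability read-out.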

[1] = curve of first compound, second compound 0.0316 µM
[2] = curve of first compound, second compound 0.1 µM
[3] = curve of first compound, second compound 0.316 µM
[4] = curve of first compound, second compound 1 µM
[5] = curve of first compound, second compound 3.16 µM
[6] = curve of first compound, second compound 10 µM
[7] = second compound 0.0316 µM, first compound 0.0316 µM
[8] = second compound 0.0316 µM, first compound 0.1 µM
[9] = second compound 0.1 µM, first compound 0.0316 µM
[10] = second compound 0.1 µM, first compound 0.1 µM
[11] = second compound 0.316 µM, first compound 0.0316 µM
[12] = second compound 0.316 µM, first compound 0.1 µM
[13] = second compound 1 µM, first compound 0.0316 µM
[14] = second compound 1 µM, first compound 0.1 µM
[15] = second compound 3.16 µM, first compound 0.0316 µM
[16] = second compound 3.16 µM, first compound 0.1 µM
[17] = second compound 10 µM, first compound 0.0316 µM
[18] = second compound 10 µM, first compound 0.1 µM
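Note: spheroids exposed to agents for 7 days before viability read.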
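Throughout, for viability, T/C: 100% = DMSO vehicle control viability.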

In the case of `COc1c(OCCCN2CCOCC2)ccc2c3n(c(=NC(=O)c4cnc(N)nc4)nc12)CCN3`, the viability, T/C (compound 0.00316 µM) is reported as 96% [middle of 8 runs], the viability, T/C (compound 0.01 µM) is reported as 96.8% [middle of 8 runs] and the viability, T/C (compound 0.0316 µM) is reported as 95.7% [middle of 8 runs]. The viability, T/C (compound 0.1 µM) was 39.7% [middle of 8 runs], the viability, T/C (compound 0.316 µM) was 19.6% [middle of 8 runs] and the viability, T/C (compound 1 µM) was 16.4% [middle of 8 runs]. The IC50 (compound alone, run of 06/13/2023) was 80.4 nM [middle of 8 runs].
For `CC(=O)c1c(C)c2cnc(Nc3ccc(N4CCNCC4)cn3)nc2n(C2CCCC2)c1=O` + CC(Nc1ncnc2nc[nH]c12)c1cc2cccc(Cl)c2c(=O)n1-c1ccccc1, the IC50 [1] was greater than 0.1 µM, the IC50 [2] was greater than 0.1 µM and the IC50 [3] was greater than 0.1 µM. It also gave an IC50 [4] greater than 0.1 µM, an IC50 [5] greater than 0.1 µM and an IC50 [6] greater than 0.1 µM. The viability, T/C (second compound 0.0316 µM, first compound 0.000316 µM) was 102%, the viability, T/C (second compound 0.0316 µM, first compound 0.001 µM) was 87.6% and the viability, T/C (second compound 0.0316 µM, first compound 0.00316 µM) was 106%. The viability, T/C (second compound 0.0316 µM, first compound 0.01 µM) was 92.5%, the viability, T/C [7] was 96.6% and the viability, T/C [8] was 92.6%. It also gave a viability, T/C (second compound 0.1 µM, first compound 0.000316 µM) of 91.4%, a viability, T/C (second compound 0.1 µM, first compound 0.001 µM) of 100% and a viability, T/C (second compound 0.1 µM, first compound 0.00316 µM) of 87.5%. It also gave a viability, T/C (second compound 0.1 µM, first compound 0.01 µM) of 91.4%, a viability, T/C [9] of 99.1% and a viability, T/C [10] of 113%. It also gave a viability, T/C (second compound 0.316 µM, first compound 0.000316 µM) of 111%, a viability, T/C (second compound 0.316 µM, first compound 0.001 µM) of 89.2% and a viability, T/C (second compound 0.316 µM, first compound 0.00316 µM) of 94.1%. It also gave a viability, T/C (second compound 0.316 µM, first compound 0.01 µM) of 94.5%, a viability, T/C [11] of 99.3% and a viability, T/C [12] of 98%. For the same compound, the viability, T/C (second compound 1 µM, first compound 0.000316 µM) was 98.3%, the viability, T/C (second compound 1 µM, first compound 0.001 µM) was 93.5% and the viability, T/C (second compound 1 µM, first compound 0.00316 µM) was 86.5%. The viability, T/C (second compound 1 µM, first compound 0.01 µM) was 93.2%, the viability, T/C [13] was 102% and the viability, T/C [14] was 89.4%. For the same compound, the viability, T/C (second compound 3.16 µM, first compound 0.000316 µM) was 95.2%, the viability, T/C (second compound 3.16 µM, first compound 0.001 µM) was 95% and the viability, T/C (second compound 3.16 µM, first compound 0.00316 µM) was 99.1%. For the same compound, the viability, T/C (second compound 3.16 µM, first compound 0.01 µM) was 98.6%, the viability, T/C [15] was 105% and the viability, T/C [16] was 93.8%. For the same compound, the viability, T/C (second compound 10 µM, first compound 0.000316 µM) was 106%, the viability, T/C (second compound 10 µM, first compound 0.001 µM) was 107% and the viability, T/C (second compound 10 µM, first compound 0.00316 µM) was 106%. The viability, T/C (second compound 10 µM, first compound 0.01 µM) was 108%, the viability, T/C [17] was 106% and the viability, T/C [18] was 103%.
For `CC1(C)CCC(Nc2ncc(C(F)(F)F)c(-c3c[nH]c4c(P(C)(C)=O)c(C#N)ccc34)n2)CN1` (stereo unspecified) + CC(Nc1ncnc2nc[nH]c12)c1cc2cccc(Cl)c2c(=O)n1-c1ccccc1, the IC50 [1] was 4.49 µM, the IC50 [2] was 4.55 µM and the IC50 [3] was 4.74 µM. The IC50 [4] was 4.69 µM, the IC50 [5] was 4.74 µM and the IC50 [6] was 4.74 µM. For the same compound, the viability, T/C [7] was 65.5%, the viability, T/C [8] was 64.1% and the viability, T/C (second compound 0.0316 µM, first compound 0.316 µM) was 58.2%. The viability, T/C (second compound 0.0316 µM, first compound 1 µM) was 68.1%, the viability, T/C (second compound 0.0316 µM, first compound 3.16 µM) was 75.1% and the viability, T/C (second compound 0.0316 µM, first compound 10 µM) was 12.9%. It also gave a viability, T/C [9] of 67.7%, a viability, T/C [10] of 59.8% and a viability, T/C (second compound 0.1 µM, first compound 0.316 µM) of 54.9%. It also gave a viability, T/C (second compound 0.1 µM, first compound 1 µM) of 72%, a viability, T/C (second compound 0.1 µM, first compound 3.16 µM) of 73% and a viability, T/C (second compound 0.1 µM, first compound 10 µM) of 16.6%. It also gave a viability, T/C [11] of 68.2%, a viability, T/C [12] of 67.4% and a viability, T/C (second compound 0.316 µM, first compound 0.316 µM) of 55.8%. It also gave a viability, T/C (second compound 0.316 µM, first compound 1 µM) of 66.2%, a viability, T/C (second compound 0.316 µM, first compound 3.16 µM) of 86.7% and a viability, T/C (second compound 0.316 µM, first compound 10 µM) of 15.2%. For the same compound, the viability, T/C [13] was 79.9%, the viability, T/C [14] was 62.4% and the viability, T/C (second compound 1 µM, first compound 0.316 µM) was 56.6%. The viability, T/C (second compound 1 µM, first compound 1 µM) was 67.5%, the viability, T/C (second compound 1 µM, first compound 3.16 µM) was 78.9% and the viability, T/C (second compound 1 µM, first compound 10 µM) was 13.4%. It also gave a viability, T/C [15] of 73.8%, a viability, T/C [16] of 64.3% and a viability, T/C (second compound 3.16 µM, first compound 0.316 µM) of 59%. It also gave a viability, T/C (second compound 3.16 µM, first compound 1 µM) of 66.6%, a viability, T/C (second compound 3.16 µM, first compound 3.16 µM) of 79.4% and a viability, T/C (second compound 3.16 µM, first compound 10 µM) of 15.7%. It also gave a viability, T/C [17] of 78.9%, a viability, T/C [18] of 66.1% and a viability, T/C (second compound 10 µM, first compound 0.316 µM) of 77.9%. It also gave a viability, T/C (second compound 10 µM, first compound 1 µM) of 58.9%, a viability, T/C (second compound 10 µM, first compound 3.16 µM) of 81.4% and a viability, T/C (second compound 10 µM, first compound 10 µM) of 7.98%.
For `CC(C)n1nc(-c2ccc3oc(N)nc3c2)c2c(N)ncnc21`, the viability, T/C (compound 0.000316 µM) was 91.3% [middle of 4 runs], the viability, T/C (compound 0.001 µM) was 94.2% [middle of 4 runs] and the viability, T/C (compound 0.00316 µM) was 104% [middle of 4 runs]. The viability, T/C (compound 0.01 µM) was 102% [middle of 4 runs] and the IC50 (curve of compound) was > 0.1 µM and 0.0939 µM.
